Earlier results as cited in patent publication US8728553B2, “Vitamin containing product” (Nattopharma ASA, priority 2000, dated 2014).

Settings: intake of 5 g butter to which 800 μg MK-4 had been added (equivalent to 16 mg MK-4 per 100 g butter)

MK-4 levels in blood serum: increased
SMILES: CC(C)=CCC/C(C)=C/CC/C(C)=C/CC/C(C)=C/CC1=C(C)C(=O)c2ccccc2C1=O [MK-4, menaquinone (MK-4)]
